Reference: PMC3986099, “Development of a Radioiodinated Triazolopyrimidine Probe for Nuclear Medical Imaging of Fatty Acid Binding Protein 4” (PLoS ONE, 2014)

Tests used:
[1] = system: 3T3-L1 preadipocytes and differentiated adipocytes; experiment: Cell uptake study in adipocytes and preadipocytes; assay type: cell-based, Murine; settings: 37 °C, 1 hr
Procedure: Murine 3T3-L1 preadipocytes were obtained from ATCC and cultured in Dulbecco's Modified Eagle Medium (Nissui Pharmaceutical Co., Ltd.) supplemented with 10% heat-inactivated fetal bovine serum, 50 U/ml penicillin and 50 μg/ml streptomycin at 37 °C in 5% CO2. For cell uptake assay, differentiation of 3T3-L1 cells was performed as described previously. Briefly, two days after confluence, the medium was replaced with DMEM containing 10% FBS and inducers ([…], 10 μg/ml insulin, 0.5 mM 3-isobutyl-1-methylxanthine and 10 μM pioglitazone hydrochloride) for 2 days. The medium was then changed to DMEM supplemented with 10% FBS, 10 μg/ml insulin and 10 μM pioglitazone hydrochloride, and then incubated for 2 days. Then, the medium was changed to DMEM supplemented with 10% FBS and 10 μM pioglitazone hydrochloride every other day. After 8-10 days, the differentiated adipocytes were used for experiments.
For the cell uptake study using adipocytes, the medium of 24-well plate, in which the differentiated adipocytes or undifferentiated 3T3-L1 cells are cultured, was removed. […] Following the measurement of the radioactivity of collected cell lysate with a well-type γ-counter, protein determination was performed. […] Binding ratios were calculated as (radioactivity in collected cells)/(total applied radioactivity)/(protein abundance) x 100 (%Dose/mg protein).

[2] = Partition coefficient, 1-octanol/phosphate buffer pH 7.4; assay type: physicochemical; settings: 1-octanol/phosphate buffer (PBS(-))
Procedure: Experimental determination of the [^125I]TAP1 partition coefficient was performed with 1-octanol and phosphate buffer at pH 7.4. The two phases were pre-saturated, and a mixture solution of 3.0 ml 1-octanol and 3.0 ml PBS (-) was added to a tube containing 0.02 ml [^125I]TAP1 in PBS (-) (0.024 MBq, 5% ethanol, v/v). The test tube was vortexed and centrifuged (1,000×g, 5 min). Aliquots from the 1-octanol and buffer phases (0.5 ml) were counted with a well-type γ-counter. This procedure was repeated three times. The partition coefficient was calculated from the ratio of radioactivity in the organic and aqueous layers.

[3] = In vitro stability in saline and plasma (RP-HPLC); assay type: in vitro ADME, ddY mice; settings: 2 hr, 37 °C
Procedure: The in vitro stability of [^125I]TAP1 in plasma was measured using plasma samples taken from ddY mice (males, 7 weeks old). [^125I]TAP1 (0.07 MBq, 0.01 ml) was incubated with 0.1 ml plasma at 37 °C for 2 hr. After addition of 0.2 ml methanol and vortexing, the mixture was centrifuged (4,160×g, 10 min). The supernatant was filtered with a low protein binding hydrophilic PTFE membrane (Millex-LH MILLIPORE), and the filtrate was analyzed by RP-HPLC using a Cosmosil C18 column with an isocratic solvent of H2O (0.1% TFA, v/v)/acetonitrile (0.1% TFA, v/v) (37/63) at a flow rate of 1.5 ml/min.

FABP4 = biological target: T1, FABP4 (Homo sapiens, UniProt P15090); experiment: Saturation binding assay, Scatchard analysis; settings: immobilized FABP4
T1 construct: purchased Cayman Chemical Company
Procedure: For the saturation assay, a mixture solution of [^125I]TAP1 (0.3–9.5 MBq) was prepared by mixing nonradioactive TAP1 (0.0125–0.4 µM) in interaction buffer (2.5% ethanol and 5% DMSO, v/v). Nonspecific binding was defined in the presence of 0.09 mg/ml [^125I]TAP1 including nonradioactive TAP1. After FABP4 immobilization as described above, 0.4 ml interaction buffer and 0.05 ml mixture solution were added, and the mixture was incubated at room temperature for 2 hr. After incubation, the supernatants were removed and the beads were washed with interaction buffer (5% ethanol, v/v). The radioactivity of beads in the tubes was then measured with a well-type γ-counter. The dissociation constant (K d) of [^125I]TAP1 for FABP4 was determined by Scatchard analysis using GraphPad Prism.

[4] = Biodistribution in normal mice; assay type: in vivo, ddY mice; settings: for Blood / Heart / Intestine / Kidney / Liver / Lung / Muscle / Pancreas / Spleen / Stomach / Thyroid gland: normal mice, i.v.
Procedure: A saline solution (5% ethanol, v/v) of [^125I]TAP1 (0.035 MBq) was injected intravenously into the tail vein of ddY mice (males, 5 weeks old). The mice were sacrificed at various post-injection time points, and the organs of interest were removed. The organ weights were determined, and the radioactivity in the organs was measured with a well-type γ-counter.

T1 sequence (P15090 whole entry): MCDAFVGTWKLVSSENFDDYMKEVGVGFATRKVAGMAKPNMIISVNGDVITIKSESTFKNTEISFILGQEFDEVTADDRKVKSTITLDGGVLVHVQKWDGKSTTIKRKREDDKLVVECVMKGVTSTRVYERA

For O=c1cc(COc2cccc([125I])c2)[nH]c2nc(-c3ccccc3)nn12 [[^125I]TAP1], the “uptake into adipocytes (FABP4 positive) vs 3T3-L1 preadipocytes (FABP4 negative)” value [1] was “significantly higher”, the logP [2] was 2.7 ± 0.1 and the “stability in mouse plasma” value ([3]; mouse plasma) was “no radioactive degradation products were observed”. The stability in saline ([3]; saline) was “no radioactive degradation products were observed”, the Kd (FABP4) was 0.0691 ± 0.0123 µM and the “stability against deiodination in vivo” value ([4]; low radioactivity in stomach and thyroid gland) was “stable against deiodination”. The Blood ([4]; 5 min) was 3.25±0.20 % injected dose per gram, the Heart ([4]; 5 min) was 1.59±0.54 % injected dose per gram and the Intestine ([4]; 5 min) was 2.21±1.43 % injected dose per gram. For the same molecule, the Kidney ([4]; 5 min) was 15.30±9.93 % injected dose per gram, the Liver ([4]; 5 min) was 57.51±4.79 % injected dose per gram and the Lung ([4]; 5 min) was 3.12±1.11 % injected dose per gram. For the same molecule, the Muscle ([4]; 5 min) was 0.73±0.51 % injected dose per gram, the Pancreas ([4]; 5 min) was 1.53±0.84 % injected dose per gram and the Spleen ([4]; 5 min) was 1.54±0.60 % injected dose per gram. The Stomach ([4]; 5 min) was 0.40±0.14 % injected dose per organ, the Thyroid gland ([4]; 5 min) was 0.01±0.005 % injected dose per organ and the Blood ([4]; 15 min) was 3.91±0.75 % injected dose per gram. The Heart ([4]; 15 min) was 1.57±0.51 % injected dose per gram, the Intestine ([4]; 15 min) was 2.21±0.72 % injected dose per gram and the Kidney ([4]; 15 min) was 32.89±11.78 % injected dose per gram. For the same molecule, the Liver ([4]; 15 min) was 47.58±2.57 % injected dose per gram, the Lung ([4]; 15 min) was 2.88±0.65 % injected dose per gram and the Muscle ([4]; 15 min) was 0.83±0.09 % injected dose per gram. It also gave a Pancreas ([4]; 15 min) of 1.23±0.26 % injected dose per gram, a Spleen ([4]; 15 min) of 1.84±0.43 % injected dose per gram and a Stomach ([4]; 15 min) of 0.76±0.14 % injected dose per organ. For the same molecule, the Thyroid gland ([4]; 15 min) was 0.03±0.01 % injected dose per organ, the Blood ([4]; 30 min) was 3.45±0.41 % injected dose per gram and the Heart ([4]; 30 min) was 1.39±0.25 % injected dose per gram. The Intestine ([4]; 30 min) was 3.83±0.07 % injected dose per gram, the Kidney ([4]; 30 min) was 45.34±3.34 % injected dose per gram and the Liver ([4]; 30 min) was 50.91±7.27 % injected dose per gram. It also gave a Lung ([4]; 30 min) of 2.76±0.49 % injected dose per gram, a Muscle ([4]; 30 min) of 0.67±0.16 % injected dose per gram and a Pancreas ([4]; 30 min) of 0.89±0.12 % injected dose per gram. It also gave a Spleen ([4]; 30 min) of 1.29±0.13 % injected dose per gram, a Stomach ([4]; 30 min) of 0.92±0.21 % injected dose per organ and a Thyroid gland ([4]; 30 min) of 0.03±0.01 % injected dose per organ. It also gave a Blood ([4]; 60 min) of 2.02±0.35 % injected dose per gram, a Heart ([4]; 60 min) of 0.96±0.32 % injected dose per gram and an Intestine ([4]; 60 min) of 5.10±1.43 % injected dose per gram. It also gave a Kidney ([4]; 60 min) of 45.89±13.85 % injected dose per gram, a Liver ([4]; 60 min) of 46.70±4.43 % injected dose per gram and a Lung ([4]; 60 min) of 1.93±0.91 % injected dose per gram. For the same molecule, the Muscle ([4]; 60 min) was 0.64±0.20 % injected dose per gram, the Pancreas ([4]; 60 min) was 1.46±0.55 % injected dose per gram and the Spleen ([4]; 60 min) was 1.14±0.38 % injected dose per gram. The Stomach ([4]; 60 min) was 1.40±0.69 % injected dose per organ, the Thyroid gland ([4]; 60 min) was 0.02±0.08 % injected dose per organ and the Blood ([4]; 120 min) was 1.72±0.49 % injected dose per gram. It also gave a Heart ([4]; 120 min) of 1.11±0.23 % injected dose per gram, an Intestine ([4]; 120 min) of 10.58±1.93 % injected dose per gram and a Kidney ([4]; 120 min) of 50.84±18.75 % injected dose per gram. For the same molecule, the Liver ([4]; 120 min) was 31.00±1.52 % injected dose per gram, the Lung ([4]; 120 min) was 1.46±0.13 % injected dose per gram and the Muscle ([4]; 120 min) was 0.71±0.24 % injected dose per gram. For the same molecule, the Pancreas ([4]; 120 min) was 0.64±0.1 % injected dose per gram, the Spleen ([4]; 120 min) was 1.44±1.21 % injected dose per gram and the Stomach ([4]; 120 min) was 2.02±0.70 % injected dose per organ. The Thyroid gland ([4]; 120 min) was 0.14±0.21 % injected dose per organ.
